Assay results taken from PMC6554663, “Pharmaceutical Effects of Inhibiting the Soluble Epoxide Hydrolase in Canine Osteoarthritis” (Frontiers in Pharmacology, 2019).
“Also recorded” adds a separate entry of the source.

What was measured:
aged beagle dogs with OA = test: Tolerability, adverse events and body weight in the dog study; type: in vivo
Method: The study was conducted as a blinded, parallel matched-group design. Dogs were randomized into groups based on pretreatment pain scores and each group was randomly assigned a treatment. Prior to randomization, each dog was assessed for arthritis by radiograph to assess the severity of OA by presence of osteophytes, subchondral sclerosis or joint effusion each scored on a scale of 0 (least) to 3 (worst) for each of 12 joints. Severity of the radiograph score was included in the randomization protocol and distributed between the groups, and there were no statistical differences between the averages of each group. Individual radiograph scores can be found in Supplementary Table S2. […] Vehicle group consisted of 5 mL PEG300 in capsule. Concurrent medications were not allowed and not needed during the study.

Canine sEH = target: T1, Canine sEH (Canis lupus familiaris, UniProt A0A8I3NJL8); test: Canine sEH inhibition IC50; type: biochemical; conditions: canine enzyme partially purified from liver cytosol
T1 construct: canine enzyme was partially purified on a Q-sepharose column from liver cytosol; from tissue; host or cells: dog liver cytosol, about 10-fold purification on Q-sepharose
T1 sequence (A0A8I3NJL8 1-556): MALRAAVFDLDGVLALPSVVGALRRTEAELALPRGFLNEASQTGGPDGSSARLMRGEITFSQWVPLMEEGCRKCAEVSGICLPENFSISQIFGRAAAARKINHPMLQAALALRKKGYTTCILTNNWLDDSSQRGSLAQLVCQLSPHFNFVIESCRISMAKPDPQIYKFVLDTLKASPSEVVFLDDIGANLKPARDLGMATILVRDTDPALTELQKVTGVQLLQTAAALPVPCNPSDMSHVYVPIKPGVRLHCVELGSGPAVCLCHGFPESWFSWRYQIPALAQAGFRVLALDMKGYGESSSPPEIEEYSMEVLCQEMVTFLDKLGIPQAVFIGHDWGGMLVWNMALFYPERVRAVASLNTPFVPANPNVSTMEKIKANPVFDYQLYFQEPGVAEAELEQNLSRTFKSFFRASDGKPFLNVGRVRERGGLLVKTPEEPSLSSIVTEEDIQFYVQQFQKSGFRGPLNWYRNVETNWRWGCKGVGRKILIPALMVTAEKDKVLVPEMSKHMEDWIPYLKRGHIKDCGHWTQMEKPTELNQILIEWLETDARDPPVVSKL

## CN(C(=O)N[C@H]1CC[C@H](Oc2ccc(C(=O)O)cc2)CC1)c1ccc(OC(F)(F)F)cc1 [EC3039, trans-4-{4-[3-methyl-3-(4-trifluoromethoxy-phenyl)-ureido]-cyclohexyloxy}-benzoic acid]
Aged beagle dogs with OA; EC3039 1 mg/kg, individual dogs, 1 mg/kg
  health case noted during treatment: relation to treatment: EC3039 – 1mg/kg / Not Related; also recorded: EC3039 – 1mg/kg / Unlikely Related
Aged beagle dogs with OA; EC3039 5 mg/kg, individual dog, moist dermatitis of ventral neck
  health case noted during treatment: relation to treatment: EC3039 – 5mg/kg / Not Related
Canine sEH
  IC50: 4.42 nM
